In patent US20180148418A1, “AMIDO-SUBSTITUTED CYCLOHEXANE DERIVATIVES” (Bayer Pharma Aktiengesellschaft, priority 2015, published 2018):

What was measured:
TNKS1 = target: T1, TNKS1 (Homo sapiens, UniProt O95271); experiment: TNKS1 Assay B (auto-parsylation, [3H]-NAD+ SPA); format: biochemical; conditions: 6 nM TNKS1, auto-parsylation, over night at room temperature
T1 construct: purchased BPS Bioscience, San Diego, USA 80579 (TNKS1 Histone Ribosylation Assay Kit)
T1 sequence (O95271 1-1327): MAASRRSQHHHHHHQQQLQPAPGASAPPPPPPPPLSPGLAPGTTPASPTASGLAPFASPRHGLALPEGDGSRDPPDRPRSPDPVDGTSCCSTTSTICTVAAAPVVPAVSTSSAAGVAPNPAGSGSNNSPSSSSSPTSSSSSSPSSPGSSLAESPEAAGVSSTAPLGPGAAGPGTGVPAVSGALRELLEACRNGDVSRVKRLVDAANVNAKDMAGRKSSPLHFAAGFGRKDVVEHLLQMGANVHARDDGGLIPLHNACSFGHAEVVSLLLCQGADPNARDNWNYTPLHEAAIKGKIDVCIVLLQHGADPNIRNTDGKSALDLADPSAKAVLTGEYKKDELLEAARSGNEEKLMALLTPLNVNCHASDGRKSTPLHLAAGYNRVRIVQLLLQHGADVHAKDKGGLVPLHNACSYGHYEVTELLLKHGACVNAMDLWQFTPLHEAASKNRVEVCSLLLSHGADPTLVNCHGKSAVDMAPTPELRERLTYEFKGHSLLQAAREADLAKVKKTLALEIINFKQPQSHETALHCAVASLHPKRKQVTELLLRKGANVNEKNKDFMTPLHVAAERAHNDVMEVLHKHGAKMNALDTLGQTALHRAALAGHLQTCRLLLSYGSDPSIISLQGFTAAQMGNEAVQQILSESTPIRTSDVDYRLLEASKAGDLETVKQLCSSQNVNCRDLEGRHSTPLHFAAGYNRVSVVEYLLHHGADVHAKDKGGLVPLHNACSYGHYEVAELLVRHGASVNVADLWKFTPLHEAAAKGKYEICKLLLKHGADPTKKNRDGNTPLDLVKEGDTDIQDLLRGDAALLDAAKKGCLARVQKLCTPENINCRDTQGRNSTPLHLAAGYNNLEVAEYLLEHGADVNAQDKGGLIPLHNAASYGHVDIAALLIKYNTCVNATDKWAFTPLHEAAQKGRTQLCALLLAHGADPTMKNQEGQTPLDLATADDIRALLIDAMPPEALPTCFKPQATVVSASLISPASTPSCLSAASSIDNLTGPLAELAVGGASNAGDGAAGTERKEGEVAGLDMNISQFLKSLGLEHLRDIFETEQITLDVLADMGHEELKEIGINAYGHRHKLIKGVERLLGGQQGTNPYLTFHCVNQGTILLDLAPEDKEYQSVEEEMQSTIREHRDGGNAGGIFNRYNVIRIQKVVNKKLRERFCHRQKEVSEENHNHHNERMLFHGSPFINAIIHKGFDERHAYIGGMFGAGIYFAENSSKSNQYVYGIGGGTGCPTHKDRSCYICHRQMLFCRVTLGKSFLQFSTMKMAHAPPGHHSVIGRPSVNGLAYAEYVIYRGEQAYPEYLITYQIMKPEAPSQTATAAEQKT

[1] = system: HEK293 cells cotransfected with the FOP control vector; experiment: HEK293 FOP assay (control reporter with non-functional TCF elements); format: cell-based; conditions: Homo sapiens, 16 hours
Procedure, shortened: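 Stable HEK293 line carrying FOP control reporter (randomized non-functional TCF sites, with pcDNA3), Geneticin-selected, plated 24 h before assay. Stimulated with recombinant human Wnt-3a (2500-5 ng/ml) and compounds 50 μM–15 nM (3.16-fold steps) in CAFTY buffer pH 7.4 with 2 mM Ca2+, 0.01% BSA, run parallel to TOP line.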

Row | SMILES | IC50 (TNKS1) [nM] | IC50 [1] [nM]
1 | Cc1cc(C)n2ncc(C(=O)N[C@H]3CC[C@@]4(CCN(c5cc(C)c(F)cc5Cl)C4=O)CC3)c2n1 [Example 266, N-[(trans)-2-(2-chloro-4-fluoro-5-methylphenyl)-1-oxo-2-azaspiro[4.5]dec-8-yl]-5,7-dimethylpyrazolo[1,5-a]pyrimidine-3-carboxamide] | 20 | ≥ 50000
2 | Cc1cc(N2CC[C@]3(CC[C@@H](NC(=O)c4cnn5cccnc45)CC3)C2=O)c(Cl)cc1F [Example 267, N-[(trans)-2-(2-chloro-4-fluoro-5-methylphenyl)-1-oxo-2-azaspiro[4.5]dec-8-yl]pyrazolo[1,5-a]pyrimidine-3-carboxamide] | 9.9 | ≥ 50000
3 | O=C(N[C@H]1CC[C@@]2(CCN(c3cccc(Cl)c3)C2=O)CC1)c1cnn2cccnc12 [Example 268, N-[(trans)-2-(3-chlorophenyl)-1-oxo-2-azaspiro[4.5]dec-8-yl]pyrazolo[1,5-a]pyrimidine-3-carboxamide] | 540 | ≥ 50000
4 | O=C(N[C@H]1CC[C@@]2(CCN(c3cccc(Cl)c3)C2=O)CC1)c1cnc2cccnn12 [Example 269, N-[(trans)-2-(3-chlorophenyl)-1-oxo-2-azaspiro[4.5]dec-8-yl]imidazo[1,2-b]pyridazine-3-carboxamide] | 800 | ≥ 50000
5 | Cc1cc(C)n2ncc(C(=O)N[C@H]3CC[C@@]4(CCN(c5cccc(Cl)c5)C4=O)CC3)c2n1 [Example 270, N-[(trans)-2-(3-chlorophenyl)-1-oxo-2-azaspiro[4.5]dec-8-yl]-5,7-dimethylpyrazolo[1,5-a]pyrimidine-3-carboxamide] | 160 | ≥ 50000
6 | O=C(N[C@H]1CC[C@@]2(CCN(c3ccccc3Cl)C2=O)CC1)c1cnc2cccnn12 [Example 271, N-[(trans)-2-(2-chlorophenyl)-1-oxo-2-azaspiro[4.5]dec-8-yl]imidazo[1,2-b]pyridazine-3-carboxamide] | 15 | ≥ 50000
7 | CNC(=O)c1nc[nH]c1C(=O)N[C@H]1CC[C@@]2(CCN(c3cccc(Cl)c3)C2=O)CC1 [Example 276, N^5-[(trans)-2-(3-chlorophenyl)-1-oxo-2-azaspiro[4.5]dec-8-yl]-N^4-methyl-1H-imidazole-4,5-dicarboxamide] | 180 | 32000
8 | CCNC(=O)c1nc[nH]c1C(=O)N[C@H]1CC[C@@]2(CCN(c3cccc(Cl)c3)C2=O)CC1 [Example 277, N^5-[(trans)-2-(3-chlorophenyl)-1-oxo-2-azaspiro[4.5]dec-8-yl]-N^4-ethyl-1H-imidazole-4,5-dicarboxamide] | 260 | 31000
9 | CC(C)NC(=O)c1nc[nH]c1C(=O)N[C@H]1CC[C@@]2(CCN(c3cccc(Cl)c3)C2=O)CC1 [Example 278, N^5-[(trans)-2-(3-chlorophenyl)-1-oxo-2-azaspiro[4.5]dec-8-yl]-N^4-(propan-2-yl)-1H-imidazole-4,5-dicarboxamide] | 450 | ≥ 50000
10 | O=C(NC1CC1)c1nc[nH]c1C(=O)N[C@H]1CC[C@@]2(CCN(c3cccc(Cl)c3)C2=O)CC1 [Example 279, N^5-[(trans)-2-(3-chlorophenyl)-1-oxo-2-azaspiro[4.5]dec-8-yl]-N^4-cyclopropyl-1H-imidazole-4,5-dicarboxamide] | 290 | ≥ 50000
11 | O=C(N[C@H]1CC[C@@]2(CCN(c3cccc(Cl)c3)C2=O)CC1)c1[nH]cnc1C(=O)N1CC(F)C1 [Example 280, N-[(trans)-2-(3-chlorophenyl)-1-oxo-2-azaspiro[4.5]dec-8-yl]-4-[(3-fluoroazetidin-1-yl)carbonyl]-1H-imidazole-5-carboxamide] | 220 | ≥ 50000
12 | O=C(NCC(F)(F)F)c1nc[nH]c1C(=O)N[C@H]1CC[C@@]2(CCN(c3cccc(Cl)c3)C2=O)CC1 [Example 281, N^5-[(trans)-2-(3-chlorophenyl)-1-oxo-2-azaspiro[4.5]dec-8-yl]-N^4-(2,2,2-trifluoroethyl)-1H-imidazole-4,5-dicarboxamide] | 330 | ≥ 50000
13 | COCCNC(=O)c1nc[nH]c1C(=O)N[C@H]1CC[C@@]2(CCN(c3cccc(Cl)c3)C2=O)CC1 [Example 282, N^5-[(trans)-2-(3-chlorophenyl)-1-oxo-2-azaspiro[4.5]dec-8-yl]-N^4-(2-methoxyethyl)-1H-imidazole-4,5-dicarboxamide] | 310 | 8000
